Structures can show the parent of a compound that is named as a salt. Bounds are passed on as bounds.

As a reminder, the AC50 is the midpoint of the concentration-response curve, whichever way the signal moves. Read a high AC50 as activity only at high concentration. As usually defined, the IC50 is the point on the concentration scale where inhibition reaches its midpoint.

Holding throughout (assay type): cell-based
The subject of assay [1] is HTT mRNA alternative junction (AJ). Kind of assay: Splicing RT-qPCR assay, increase of HTT alternative junction (AJ) mRNA. Particulars: A673 or K562 cells, 24 hours compound treatment, concentration having 50% response in AJ increase. How it is done:
(§1) Compounds described herein were used to modulate RNA transcript abundance in cells. The expression of a target mRNA was measured by detecting the formation of an exon-exon junction in the canonical transcript (CJ). A compound mediated exon-inclusion event was detected by observing an increase in formation of a new junction with an alternative exon (AJ). Real-time qPCR assays were used to detect these splicing switches and interrogate the potency of various compounds towards different target genes. A high-throughput real time quantitative PCR (RT-qPCR) assay was developed to measure these two isoforms of the mRNA (CJ and AJ) for an exemplary gene, HTT, together with a control housekeeping gene, GAPDH or GUSB or PPIA, used for normalization. Briefly, the A673 or K562 cell line was treated with various compounds described herein (e.g., compounds of Formula (I)). After treatment, the levels of the HTT mRNA targets were determined from each sample of cell lysate by cDNA synthesis followed by qPCR.
(§2) The A673 cell line was cultured in DMEM with 10% FBS. Cells were diluted with full growth media and plated in a 96-well plate (15,000 cells in 100 ul media per well). The plate was incubated at 37° C. with 5% CO2 for 24 hours to allow cells to adhere. An 11-point 3-fold serial dilution of the compounds was made in DMSO then diluted in media in an intermediate plate. Compounds were transferred from the intermediate plate to the cell plate with the top dose at a final concentration of 10 uM in the well. Final DMSO concentration was kept at or below 0.25%. The cell plate was returned to the incubator at 37° C. with 5% CO2 for an additional 24 hours.
(§3) The K562 cell line was cultured in IMDM with 10% FBS. For K562, cells were diluted with full growth media and plated in either a 96-well plate (50,000 cells in 50 uL media per well) or a 384-well plate (8,000-40,000 cells in 45 uL media per well). An 11-point 3-fold serial dilution of the compounds were made in DMSO then diluted in media in an intermediate plate. Compound was transferred from the intermediate plate to the cell plate with the top dose at a final concentration of 10 uM in the well. Final DMSO concentration was kept at or below 0.25%. Final volume was 100 uL for 96-well plate and 50 uL for 384-well plate. The cell plate was then placed in an incubator at 37° C. with 5% CO2 for 24 hours.
(§4) The cells were then gently washed with 50 uL-100 uL cold PBS before proceeding to addition of lysis buffer. 30 uL-50 uL of room temperature lysis buffer with DNAse I (and optionally RNAsin) was added to each well. Cells were shaken/mixed thoroughly at room temperature for 5-10 minutes for lysis to take place and then 3 uL-5 uL of room temperature stop solution was added and wells were shaken/mixed again. After 2-5 minutes, the cell lysate plate was transferred to ice for RT-qPCR reaction setup. The lysates could also be frozen at −80° C. for later use.
(§5) In some cases, a direct lysis buffer was used. An appropriate volume of 3× lysis buffer (10 mM Tris, 150 mM NaCl, 1.5%-2.5% Igepal and 0.1-1 U/uL RNAsin, pH 7.4) was directly added to either K562 or A673 cells in media and mixed by pipetting 3 times. The plates were then incubated at room temperature with shaking/rocking for 20-50 minutes to allow for lysis to take place. After this time, the cell lysate plate was transferred to ice to set up for the RT-qPCR reactions. The lysates could also be frozen at −80° C. for later use.
(§6) To set up 10 uL RT-qPCR reactions, cell lysates were transferred to 384-well qPCR plates containing the master mix according to the table below. The plates were sealed, gently vortexed, and spun down before the run. The volumes were adjusted accordingly in some instances where the reaction was carried in 20 uL. The table below summarizes the components of the RT-qPCR reactions:
(§7) The RT-qPCR reaction was performed using a QuantStudio (ThermoFisher) under the following fast cycling conditions. […]

For assay [2], the system named is HTT mRNA canonical junction (CJ). Kind of assay: Splicing RT-qPCR assay, decrease of HTT canonical junction (CJ) mRNA. Particulars: A673 or K562 cells, 24 hours compound treatment, concentration having 50% response in CJ decrease. How it is done:
as §1, §2, §3, §4, §5, §6, §7

The next assay deals with HTT CJ mRNA. Kind of assay: Gene panel canonical junction qPCR assay, HTT. Particulars: protocol of Example 42, read-out: HTT IC50 (decrease in CJ mRNA levels). Here is the method: as §1, §2, §3
(§8) The data analysis was performed by first determining the ACt vs the housekeeper gene. This ACt was then normalized against the DMSO control (AACt) and converted to RQ (relative quantification) using the 2^(−ΔΔCt) equation. The RQ were then converted to a percentage response by arbitrarily setting an assay window of 3.5 ΔCt for HTT-CJ and an assay window of 9 ΔCt for HTT-AJ. […] The percentage response was then fitted to the 4 parametric logistic equation to evaluate the concentration dependence of compound treatment. The increase in AJ mRNA is reported as AC50 (compound concentration having 50% response in AJ increase) while the decrease in CJ mRNA levels is reported as IC50 (compound concentration having 50% response in CJ decrease).
(§9) Additional studies were carried out for a larger panel of genes using the protocol provided above. The junction between flanking upstream and downstream exons was used to design canonical junction qPCR assays. At least one of the forward primer, reverse primer or the CY5-labeled 5′ nuclease probe (with 3′ quencher such as ZEN/Iowa Black FQ) was designed to overlap with the exon junction to capture the CJ mRNA transcript. BLAST was used to confirm the specificity of the probeset and parameters such as melting temperature, GC content, amplicon size, and primer dimer formation are considered during their design. Data for the decrease in CJ mRNA levels for three exemplary genes (HTT, SMN2, and Target C) analyzed in this panel are reported as IC50 (compound concentration having 50% response in CJ decrease).
In general terms: Quantitative PCR measures a nucleic acid by following its amplification.

The next assay deals with Target C CJ mRNA. Kind of assay: Gene panel canonical junction qPCR assay, Target C. The following applies: protocol of Example 42, read-out: Target C IC50 (decrease in CJ mRNA levels). Here is the method: as §1, §2, §3, §8, §9
A further assay deals with SMN2 CJ mRNA. Kind of assay: Gene panel canonical junction qPCR assay, SMN2. Particulars: protocol of Example 42, read-out: SMN2 IC50 (decrease in CJ mRNA levels). How it is done: as §1, §2, §3, §8, §9

As for `Cc1cn2nc(NC(=O)c3ccc(C4CCNCC4)c4cc(C)oc34)cc(C)c2n1` [Compound 118, N-[2,8-dimethylimidazo[1,2-b]pyridazin-6-yl]-2-methyl-4-(piperidin-4-yl)-1-benzofuran-7-carboxamide], the AC50 in assay [1] and in assay [2] was 1 to 10 µM throughout. The IC50 in the assay with HTT CJ mRNA is 1 to 10 µM; with Target C CJ mRNA, above 10 µM.
As for `Cc1cn2nc(NC(=O)c3ccc(C4CCNCC4)c4ccoc34)cc(C)c2n1` [Compound 119, N-[2,8-dimethylimidazo[1,2-b]pyridazin-6-yl]-4-(piperidin-4-yl)-1-benzofuran-7-carboxamide], the AC50 in assay [1] was above 10 µM; in assay [2], 1 to 10 µM. Also, the results for the IC50 with HTT CJ mRNA, in the assay on SMN2 CJ mRNA and with Target C CJ mRNA were 1 to 10 µM, 0.1 to 1 µM and above 10 µM, respectively.
In the case of `Cc1cn2cc(NC(=O)c3ccc(N4CCNCC4)c4nc(C)oc34)cc(F)c2n1` [Compound 140], the AC50 in assay [1] and in assay [2] was 1 to 10 µM throughout. For the same molecule, the IC50 in the assay on HTT CJ mRNA lay in the range of 1 to 10 µM; in the assay with SMN2 CJ mRNA it was 0.1 to 1 µM.
With `Cc1cn2cc(NC(=O)c3ccc(N4CCNCC4)c4oc(C)nc34)cc(F)c2n1` [Compound 141, N-[8-fluoro-2-methylimidazo[1,2-a]pyridin-6-yl]-2-methyl-7-(piperazin-1-yl)-1,3-benzoxazole-4-carboxamide hydrochloride], the AC50 in assay [1] and in assay [2] was below 0.1 µM in each case. In addition, the IC50 in the assay with HTT CJ mRNA was below 0.1 µM; in the assay on SMN2 CJ mRNA, below 0.1 µM; with Target C CJ mRNA, 0.1 to 1 µM.
`Cc1cn2cc(NC(=O)c3ccc(N4CCNCC4)c4cc(C)oc34)cc(F)c2n1` [Compound 142, N-[8-fluoro-2-methylimidazo[1,2-a]pyridin-6-yl]-2-methyl-4-(piperazin-1-yl)-1-benzofuran-7-carboxamide]: the AC50 in assay [1] and in assay [2] was 1 to 10 µM each time. In addition, the values for the IC50 in the assay on HTT CJ mRNA, in the assay on SMN2 CJ mRNA and with Target C CJ mRNA were 1 to 10 µM, below 0.1 µM and 0.1 to 1 µM, respectively.
As for `Cc1cn2cc(NC(=O)c3ccc(N4CCNCC4)c4cn(C)nc34)cc(F)c2n1` [Compound 143, N-[8-fluoro-2-methylimidazo[1,2-a]pyridin-6-yl]-2-methyl-4-(piperazin-1-yl) indazole-7-carboxamide], the AC50 in assay [1] and in assay [2] was 0.1 to 1 µM each time. Moreover, the IC50 was 0.1 to 1 µM with HTT CJ mRNA, below 0.1 µM with SMN2 CJ mRNA and below 0.1 µM in the assay on Target C CJ mRNA.
As to `Cc1cn2cc(NC(=O)c3ccc(C4CCNCC4)c4cc(C)oc34)cc(F)c2n1` [Compound 145, N-[8-fluoro-2-methylimidazo[1,2-a]pyridin-6-yl]-2-methyl-4-(piperidin-4-yl)-1-benzofuran-7-carboxamide], the AC50 in assay [1] and in assay [2] was 1 to 10 µM in each case. Moreover, the values for the IC50 in the assay with HTT CJ mRNA, with SMN2 CJ mRNA and in the assay on Target C CJ mRNA were 1 to 10 µM, below 0.1 µM and 0.1 to 1 µM, respectively.
`Cc1cn2nc(NC(=O)c3ccc(N4CCNCC4)c4cc(C)oc34)cc(C)c2n1` [Compound 148, N-[2,8-dimethylimidazo[1,2-b]pyridazin-6-yl]-2-methyl-4-(piperazin-1-yl)-1-benzofuran-7-carboxamide]: the AC50 in assay [1] and in assay [2] was 1 to 10 µM in each case. Also, the IC50 was 1 to 10 µM in the assay with HTT CJ mRNA, 0.1 to 1 µM in the assay on SMN2 CJ mRNA and 1 to 10 µM with Target C CJ mRNA.
Take `Cc1cn2cc(NC(=O)c3ccc(C4CCNCC4)c4ccoc34)cc(F)c2n1` [Compound 149, N-[8-fluoro-2-methylimidazo[1,2-a]pyridin-6-yl]-4-(piperidin-4-yl)-1-benzofuran-7-carboxamide hydrochloride]: the AC50 in assay [1] and in assay [2] was 1 to 10 µM in each case. For the same molecule, the figures for the IC50 with HTT CJ mRNA, in the assay with SMN2 CJ mRNA and in the assay with Target C CJ mRNA were 1 to 10 µM, below 0.1 µM and above 10 µM, respectively.
As for `CCC1CN(c2ccc(C(=O)Nc3cc(F)c4nc(C)cn4c3)c3oc(C)cc23)CCN1` (centres unmarked) [Compound 192], the IC50 is 1 to 10 µM in the assay with HTT CJ mRNA, below 0.1 µM with SMN2 CJ mRNA and 1 to 10 µM in the assay on Target C CJ mRNA.
For `Cc1cn2cc(NC(=O)c3ccc(N4CC(C)(C)NC(C)(C)C4)c4cc(C)oc34)cc(F)c2n1` [Compound 195], the IC50 in the assay on HTT CJ mRNA is above 10 µM; in the assay on SMN2 CJ mRNA, below 0.1 µM; in the assay on Target C CJ mRNA, above 10 µM.
In the case of `Cc1cn2nc(-c3ccc(C(=O)NC4CCNCC4)c4oc(C)cc34)cc(C)c2n1` [Compound 282, 4-{2,8-dimethylimidazo[1,2-b]pyridazin-6-yl}-2-methyl-N-(piperidin-4-yl)-1-benzofuran-7-carboxamide], the AC50 in assay [1] and in assay [2] was 1 to 10 µM in each case.
In the case of `Cc1cn2cc(-c3ccc(C(=O)NC4CCNCC4)c4oc(C)cc34)cc(F)c2n1` [Compound 283, 4-{8-fluoro-2-methylimidazo[1,2-a]pyridin-6-yl}-2-methyl-N-(piperidin-4-yl)-1-benzofuran-7-carboxamide], the AC50 in assay [1] is above 10 µM; in assay [2] it was 1 to 10 µM.
As for `CCn1cc2c(N3CCNCC3)ccc(C(=O)Nc3cc(Cl)c4nc(C)cn4c3)c2n1` [Compound 284, N-{8-chloro-2-methylimidazo[1,2-a]pyridin-6-yl}-2-ethyl-4-(piperazin-1-yl)indazole-7-carboxamide], the half-maximal activity concentration (AC50) in assay [1] was above 10 µM; in assay [2], 1 to 10 µM.
For `Cc1cn2cc(NC(=O)c3ccc(C4CCNCC4)c4cn(C)nc34)cc(Cl)c2n1` [Compound 285, N-{8-chloro-2-methylimidazo[1,2-a]pyridin-6-yl}-2-methyl-4-(piperidin-4-yl) indazole-7-carboxamide], the AC50 in assay [1] and in assay [2] was 0.1 to 1 µM throughout.
On to `Cc1cn2cc(NC(=O)c3ccc(N4CCNCC4)c4c[nH]nc34)cc(Cl)c2n1` [Compound 286, N-{8-chloro-2-methylimidazo[1,2-a]pyridin-6-yl}-4-(piperazin-1-yl)-2H-indazole-7-carboxamide], for which the AC50 in assay [1] and in assay [2] was above 10 µM each time.

Values taken from US20230365566A1, “HETEROCYCLIC AMIDES AND THEIR USE FOR MODULATING SPLICING” (REMIX THERAPEUTICS INC., priority 2020, published 2023).
